Laboratory results reported in patent US11541065B2, “Compositions and methods for treating brain injury” (UNM RAINFOREST INNOVATIONS, priority 2018, dated 2023).

What was measured:
[1] = tested on: COX2; experiment: COX2 protein level in WT and GluN2A-KO mouse neuronal cultures (immunoblot); assay type: cell-based, mice; details: L-homocysteine 50 μM, four hours
Description: Equal protein from total cell lysates obtained from rat and mice neuronal cultures were resolved in 7.5% SDS-PAGE, and subjected to immunoblotting procedure as described earlier (Poddar and Paul, 2009, J Neurochem 110:1095-1106). Blots were analyzed with antibodies as described in each experiment. All primary antibodies (anti-COX2, anti-B-tubulin) and secondary-horse radish peroxidase conjugated antibody concentrations were used according to recommendations provided by the manufacturer. Signals from immune complexes in the blots were developed using West Pico supersignal chemiluminescence reagents and then captured on X-ray films. Densitometric analysis of the images was performed using the Image J software.
Rat and mice neuronal cultures were washed with PBS (pH 7.4), containing sodium pyrophosphate and sodium vanadate as phosphatase inhibitors, and harvested in SDS sample buffer (Laemmli, 1970, Nature 227:680-685). Equal protein from total cell lysates, estimated using BCA kit, was resolved by SDS-PAGE (7.5%) followed by western blotting on PVDF membranes. Immunoblot analysis was performed by first blocking with 5% non-fat dry milk for 1 h at room temperature followed by incubation with either COX2 immunoblot analysis (Poddar and Paul, 2009, J Neurochem 110:1095-1106) as described in each experiment. […]

[2] = tested on: cPLA2; experiment: cPLA2 activity in WT and GluN2A-KO mouse neuronal lysates; assay type: cell-based, mice; details: L-homocysteine 50 μM, four hours
Description: (§1) Neuron cultures were treated with or without L-homocysteine in the presence or absence of pharmacological inhibitors for the time period specified in each experiment. The medium was collected from each experimental plate and centrifuged at 1000 rpm for five minutes to remove cellular debris. Equal amounts (100 μl) of the supernatant from each sample were used to determine the amount of PGE2 using the PGE2 enzyme immunoassay kit according to the manufacturer's instructions. For measurement of cPLA2 activity, the neuronal cells from the above treated conditions were harvested in ice-cold Tris-buffered saline (pH7.4) containing sodium pyrophosphate as phosphatase inhibitor, sonicated three times with five-second bursts and two minutes on ice between intervals. The lysed cell suspensions were centrifuged at 10,000 rpm for 10 minutes and the supernatant removed. Equal amounts of protein from the supernatant (assessed using BCA protein estimation kit) were estimated for activity of cPLA2 using cPLA2 activity assay kit according to the manufacturer's protocol.
For measurement of cPLA2 activity and MCP-1 levels in cell lysates, neuronal lysates were prepared by harvesting neurons in ice-cold Tris-buffered saline (pH 7.4) containing phosphatase inhibitor, sonicated three times in five-second bursts and placed on ice (two minutes) between each burst of sonication. […]

[3] = tested on: rat cortical neuron cultures; experiment: OGD / re-oxygenation cell death, Hoechst DNA staining; assay type: cell-based; details: OGD two hours in the presence of homocysteine 50 μM, re-oxygenation 22 hours, vs OGD alone
Description: At specified time periods (one hour, two hours, and three hours) during OGD alone or OGD in the presence of L-Hcy (50 μM), cells were removed from the chamber and lysed for immunoblot analysis. Some cultures were treated with L-Hcy (three hours) during the OGD insult in the presence or absence of NVP-AAM077 (30 nM; 3 h). […] Cells were then subjected to staining with Hoechst 33342 dye for 15 minutes, washed extensively with PBS, and analyzed using fluorescent microscopy to assess nuclear damage. To quantitatively assess the percentage of pyknotic nuclei, a total of 1000 cells were counted for each set of experiments (Poddar et al., 2010, J Neurochem 115, 1350-1362).

[4] = tested on: PGE2; experiment: PGE2 release from WT and GluN2A-KO mouse neuronal cultures; assay type: cell-based, mice; details: homocysteine 50 μM, four hours
Description: as §1
For measurement of PGE2 levels and MCP-1 levels released from neurons, culture medium was collected from each experimental plate and centrifuged at 1000 rpm for five minutes to remove cellular debris. […]

[5] = tested on: hyperhomocysteinemic rats subjected to MCAO; experiment: Accelerated Rotarod test after MCAO; assay type: in vivo, male Wistar rats; details: HHcy rats, day 8 post MCAO, NVP-AAM077 1.2 mg/kg; untreated HHcy 96.99±4.11 sec
Description: (§2) All rats were subjected to a battery of behavioral tests on day 7 (CatWalk), day 8 (cylinder and rotarod tests) and day 9 (adhesive test) after MCAO to evaluate normal gait, motor coordination and sensory motor functions. Habituation and training (3 days) was performed for one week before MCAO. The first two trainings days were before osmotic pump implantation and the third training day was after pump implantation. An experienced observer blinded to the experimental conditions evaluated all behavioral parameters.
Accelerated Rotarod test: Control, hyperhomocysteinemic and NVP-AAM077 treated hyperhomocysteinemic rats were subjected to the accelerated Rotarod test to evaluate impairment of motor co-ordination and balance following stroke (Bouet et al., 2007, Exp Neurol 203:555-567; Schaar et al., 2010, Exp Transl Stroke Med 2:13). Rats were placed on a rotating cylindrical rod accelerating from 0 to 50 rpm for a period of 180 seconds, and their latency to fall was recorded. The mean of four runs (10 min rest between trials) was used for statistical analysis. One hyperhomocysteinemic rat was excluded from the study as the rat jumped off the rod repeatedly.

[6] = tested on: hyperhomocysteinemic rats subjected to MCAO; experiment: Cylinder test after MCAO; assay type: in vivo, male Wistar rats; details: HHcy rats, day 8 after MCAO, NVP-AAM077 1.2 mg/kg; untreated HHcy 24.24±2.37%
Description: as §2
Cylinder test: Control, hyperhomocysteinemic and NVP-AAM077 treated hyperhomocysteinemic rats were subjected to cylinder test to assess the post-stroke asymmetry in fore-limb use (Balkaya, 2013, J Cereb Blood Flow Metab 33:330-338). The rats were placed individually inside a transparent plexiglass cylinder (diameter 20 cm, height 45 cm). A vertical exploration movement with either the left or right forelimb along the wall was scored as contact of each paw with the glass wall for a total period of 2 minutes. Simultaneous contact by both paws was scored separately. Two trials (10 min rest between trials) were recorded and the percentage use of the affected fore limb was calculated (Liu et al., 2013, Behav Brain Res 257:166-177; Schaar et al., 2010, Exp Transl Stroke Med 2:13).

Compound | COX2 protein level ([1]; GluN2A-KO mice cultures) | COX2 protein level ([1]; WT mice cultures) | cPLA2 activity ([2]; neurons from GluN2A-KO mice) | cPLA2 activity ([2]; neurons from WT mice) | OGD-induced cell death [3] | PGE2 release ([4]; GluN2A-KO mice cultures) | PGE2 release ([4]; WT mice cultures) | latency to fall from accelerated rotarod [5] | spontaneous usage of the affected forepaw [6]
N[C@@H](CCS)C(=O)O [L-homocysteine] | fails to augment COX2 protein expression | leads to increase in COX2 protein level | cPLA2 activity remain unchanged | cPLA2 activity increase significantly | increases by two-fold | fails to induce PGE2 release | significantly increases PGE2 release |  | 
C[C@H](NC(c1cccc2[nH]c(=O)c(=O)[nH]c12)P(=O)(O)O)c1ccc(Br)cc1 (stereo partly drawn) [NVP-AAM077, ({[(1S)-1-(4-bromophenyl)ethyl]amino}-(2,3-dioxo-1,4-dihydroquinoxalin-5-yl)methyl)phosphonic acid] |  |  |  |  |  |  |  | 112.51 ± 4.9 s | 40.51±1.86%
